Reference: ChEMBL document CHEMBL6074698, “Heteroaryl Glutarimides and Dihydrouracils as Cereblon Ligand Scaffolds for Molecular Glue Degrader Discovery” (ACS Med Chem Lett, 2024)

Columns and labels:
physchem [1] = details: PBS, pH 7.4
in vitro = details: human
physchem [2] = details: DMEM buffer, pH 7.4

Row | SMILES | logD (physchem [1]) | half-life at 24 h (in vitro; MV4-11 cells) [h] | half-life at 48 h (physchem [2]) [h] | half-life at 24 h (in vitro; mv4-11) [h]
1 | O=C1CCN(c2ccccc2)C(=O)N1 | 0.3 | – | – | –
2 | O=C1CCC(c2ccccc2)C(=O)N1 (stereo not drawn) | 0.6 | > 24 | – | –
3 | O=C1CCC(c2cccc3cc[nH]c23)C(=O)N1 (stereo not drawn) | 1.4 | – | – | –
4 | O=C1CCC(c2ccc3[nH]ncc3c2)C(=O)N1 (stereo not drawn) | 0.3 | – | – | –
5 | O=C1CCC(c2ccnc3[nH]ncc23)C(=O)N1 (stereo not drawn) | -0.3 | – | – | –
6 | Nc1cccc2c1CN(C1CCC(=O)NC1=O)C2=O (stereo not drawn) [LENALIDOMIDE] | – | 12 | 0.9 | –
7 | Nc1cccc2c1C(=O)N(C1CCC(=O)NC1=O)C2=O (stereo not drawn) [POMALIDOMIDE] | 1.3 | – | 0.4 | 12
8 | O=C1CCC(N2C(=O)c3ccccc3C2=O)C(=O)N1 (stereo not drawn) [THALIDOMIDE] | 0.7 | 3.3 | – | –
